Patent US8748466B2, “Isoxazole derivatives useful as antibacterial agents” (Pfizer Inc., priority 2011, dated 2014)
≈ marks a conversion by molar mass, not a printed value. Read-outs that look alike come from different tables or passages of the source.

What was measured:
[1] = test system: Escherichia coli EC-1: VOGEL, mouse virulent; test: MIC determination (CLSI), EC-1; format: cell-based; conditions: read-out: EC-1 MIC
Procedure: (§1) The in vitro antibacterial activity of compounds described in the Examples was evaluated by minimum inhibitory concentration (MIC) testing according to Clinical and Laboratory Standards Institute (CLSI). See: Clinical and Laboratory Standards Institute. Methods for Dilution Antimicrobial Susceptibility Tests for Bacteria that Grow Aerobically; Approved Standard-Eighth Edition. CLSI document M7-A8 [ISBN 1-56238-689-1]. Clinical and Laboratory Standards Institute, 940 West Valley Road, Suite 1400, Wayne, Pa. 19087-1898 USA, 2006; also Clinical and Laboratory Standards Institute. Performance Standards for Antimicrobial Susceptibility Testing; Twentieth Informational Supplement. CLSI document M100-S20 [ISBN1-56238-716-2]. Clinical and Laboratory Standards Institute.
(§2) The MIC determination is a standard laboratory method for evaluating the antibacterial activity of a compound. The MIC represents the lowest drug concentration that inhibits visible growth of bacteria following overnight incubation. […] Typically, the drug concentration range is broken down into 2-fold increments (e.g., 0.06 μg/mL, 0.12 μg/mL. 0.25 μg/mL, 0.50 μg/mL, 1.0 μg/mL, etc.) and the various drug concentrations are all individually incubated overnight with approximately the same number of bacteria. The MIC is then determined by visually inspecting the drug effect at each concentration, and identifying the lowest drug concentration that has inhibited bacterial growth as compared to the drug free control. Typically, bacteria continue to grow at drug concentrations lower than the MIC and don't grow at concentrations at and above the MIC.
(§3) The MIC values described in Tables 4 and 5 below were derived from assays wherein each test compound was evaluated in duplicate. In cases where the duplicate values varied by 0-2-fold, the lower of the two values was reported below. Generally speaking, if the duplicate values varied by more than 2-fold, the assay was considered non-valid and was repeated until the variation between duplicate runs was 2-fold. In line with the CLSI guidelines referred to above, both control organisms and reference compounds were utilized in each MIC assay to provide proper quality control. MIC values generated with these control organisms and reference compounds were required to fall within a defined range for the assay to be considered valid and be included herein. Those skilled in the art will recognize that MIC values can and do vary from experiment to experiment. Generally speaking, it should be recognized that MIC values often vary +/−2-fold from experiment to experiment. While a single MIC is reported for each compound and each microorganism, the reader should not conclude that each compound was only tested once. Several of the compounds were subjected to multiple tests. The data reported in Tables 4 and 5 is reflective of the compound's relative activity and different MICs may have been generated on these occasions in line with the guidelines described above.
(§4) The following bacterial strains were used in these MIC determinations:
2) Escherichia coli EC-1: VOGEL, mouse virulent labeled as EC-1 in Tables 4 and 5;

[2] = test system: Pseudomonas aeruginosa UC12120 (mouse virulent); test: MIC determination (CLSI), PA-UC12120; format: cell-based; conditions: UC12120, read-out: PA-UC12120 MIC
Procedure: as §1, §2, §3, §4
1) Pseudomonas aeruginosa UC12120 (mouse virulent) labeled as PA-UC12120 in Tables 4 and 5;

[3] = target: T1, Pseudomonas aeruginosa LpxC enzyme (Pseudomonas aeruginosa, UniProt P47205); test: LpxC enzyme IC50 assay (PA LpxC enzyme IC50), BioTrove RapidFire mass spectrometry; format: biochemical
T1 construct: made in house; host or cells: E. coli
T1 sequence (P47205 1-303): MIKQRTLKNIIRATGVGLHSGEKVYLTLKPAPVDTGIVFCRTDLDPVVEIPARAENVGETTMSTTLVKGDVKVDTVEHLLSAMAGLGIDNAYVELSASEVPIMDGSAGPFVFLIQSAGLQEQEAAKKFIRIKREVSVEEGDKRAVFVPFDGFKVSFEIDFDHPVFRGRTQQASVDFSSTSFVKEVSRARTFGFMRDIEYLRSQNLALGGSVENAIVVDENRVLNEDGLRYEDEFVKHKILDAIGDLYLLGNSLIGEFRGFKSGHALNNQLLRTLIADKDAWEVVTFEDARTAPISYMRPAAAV
Procedure: In order to assess the compounds biological activity selected in vitro assays were conducted on selected compounds. One of the assays measured the compounds ability to disrupt the synthesis of lipopolysaccharide, LPS, which is a component of the outer membrane of Gram-negative bacteria. Disruption of this synthesis is lethal to the bacteria. The assay determined the compound's ability to inhibit LpxC, which is the first enzyme in the biosynthetic pathway for LPS (measured as IC50). Additionally, MICs (minimal inhibitory concentrations) were determined for several bacteria. The specific protocols are described below:
A) IC50 Assay LpxC Enzyme from P. aeruginosa Labeled as PA LpxC Enzyme IC50):
At the end of 1 hour, 5 ul of 1 N HCl was added to stop the enzyme reaction, the plates were centrifuged, and then processed with the BioTrove Rapidfire HTMS Mass Spectrometry System. A no-enzyme control was used in calculating the IC50 values from the percent conversion values.

[4] = test system: Acinetobacter baumannii/haemolyticus: Multidrug-resistant clinical isolate AB-3167; test: MIC determination (CLSI), AB-3167; format: cell-based; conditions: overnight incubation, duplicate, lower of the two values reported
Procedure: as §1, §2, §3, §4
3) Acinetobacter baumannii/haemolyticus: Multidrug-resistant clinical isolate labeled as AB-3167 in Tables 4 and 5;

[5] = P. aeruginosa LpxC enzyme 0.1 nM, 25° C., 1 hour, pH 8.0, read-out: PA:IC50

Compound	MIC [1]	MIC [2]	IC50 [3, 5]	MIC [4]	IC50 [3]
COc1ccccc1-c1cc(CCC(C)(C(=O)NO)S(C)(=O)=O)no1 (racemic) [Example 16, N-hydroxy-4-[5-(2-methoxyphenyl)isoxazol-3-yl]-2-methyl-2-(methylsulfonyl)butanamide]	> 64 µg/mL	16 µg/mL (≈ 43.4 µM)	40.5 nM	> 64 µg/mL	
CC(CCc1cc(CC2(O)CCCCC2)on1)(C(=O)NO)S(C)(=O)=O (racemic) [Example 17, N-hydroxy-4-{5-[(1-hydroxycyclohexyl)methyl]isoxazol-3-yl}-2-methyl-2-(methylsulfonyl)butanamide]	> 64 µg/mL	> 64 µg/mL	> 100 nM	> 64 µg/mL	
CC(CCc1cc(-c2cccc(F)c2)on1)(C(=O)NO)S(C)(=O)=O (racemic) [Example 21, 4-[5-(3-fluorophenyl)isoxazol-3-yl]-N-hydroxy-2-methyl-2-(methylsulfonyl)butanamide]	32 µg/mL (≈ 89.8 µM)	4 µg/mL (≈ 11.2 µM)		> 64 µg/mL	6.8 nM
Cc1cc(-c2cc(CCC(C)(C(=O)NO)S(C)(=O)=O)no2)ccc1OC(F)F (racemic) [Example 22, 4-{5-[4-(difluoromethoxy)-3-methylphenyl]isoxazol-3-yl}-N-hydroxy-2-methyl-2-(methylsulfonyl)butanamide]	8 µg/mL (≈ 19.1 µM)	1 µg/mL (≈ 2.39 µM)	1.5 nM	> 64 µg/mL	
CCOC(=O)N(Cc1cc(CCC(C)(C(=O)NO)S(C)(=O)=O)no1)C(C)C (racemic) [Example 23, ethyl ({3-[4-(hydroxyamino)-3-methyl-3-(methylsulfonyl)-4-oxobutyl]isoxazol-5-yl}methyl)isopropylcarbamate]	> 64 µg/mL	> 64 µg/mL	> 100 nM	> 64 µg/mL	
COc1cccc(OC)c1-c1cc(CCC(C)(C(=O)NO)S(C)(=O)=O)no1 (racemic) [Example 24, 4-[5-(2,6-dimethoxyphenyl)isoxazol-3-yl]-N-hydroxy-2-methyl-2-(methylsulfonyl)butanamide]	> 64 µg/mL	> 64 µg/mL	> 100 nM	> 64 µg/mL	
CCCCNC(=O)OCc1cc(CCC(C)(C(=O)NO)S(C)(=O)=O)no1 (racemic) [Example 25, {3-[4-(hydroxyamino)-3-methyl-3-(methylsulfonyl)-4-oxobutyl]isoxazol-5-yl}methyl butylcarbamate]	> 64 µg/mL	> 64 µg/mL	> 100 nM	> 64 µg/mL	
CC(CCc1cc(CNS(=O)(=O)c2ccc(F)cc2)on1)(C(=O)NO)S(C)(=O)=O (racemic) [Example 27, 4-[5-({[(4-fluorophenyl)sulfonyl]amino}methyl)isoxazol-3-yl]-N-hydroxy-2-methyl-2-(methylsulfonyl)butanamide]	> 64 µg/mL	> 64 µg/mL	> 100 nM	> 64 µg/mL	
CC(CCc1cc(-c2cccc(Cl)c2Cl)on1)(C(=O)NO)S(C)(=O)=O (racemic) [Example 30, 4-[5-(2,3-dichlorophenyl)isoxazol-3-yl]-N-hydroxy-2-methyl-2-(methylsulfonyl)butanamide]	4 µg/mL (≈ 9.82 µM)	1 µg/mL (≈ 2.46 µM)		> 64 µg/mL	2.7 nM
CCOC(C)(C)c1cc(CCC(C)(C(=O)NO)S(C)(=O)=O)on1 (racemic) [Example 31, 4-[3-(1-ethoxy-1-methylethyl)isoxazol-5-yl]-N-hydroxy-2-methyl-2-(methylsulfonyl)butanamide]	> 64 µg/mL	> 64 µg/mL	> 100 nM	> 64 µg/mL	
COc1cccc(OC)c1-c1cc(CCC(C)(C(=O)NO)S(C)(=O)=O)on1 (racemic) [Example 32, 4-[3-(2,6-dimethoxyphenyl)isoxazol-5-yl]-N-hydroxy-2-methyl-2-(methylsulfonyl)butanamide]	> 64 µg/mL	> 64 µg/mL	88.7 nM	> 64 µg/mL	
CC(CCc1cc(-c2ccc3c(c2)OCO3)no1)(C(=O)NO)S(C)(=O)=O (racemic) [Example 33, 4-[3-(1,3-benzodioxol-5-yl)isoxazol-5-yl]-N-hydroxy-2-methyl-2-(methylsulfonyl)butanamide]	16 µg/mL (≈ 41.8 µM)	2 µg/mL (≈ 5.23 µM)	5.1 nM	> 64 µg/mL	
CC(CCc1cc(-c2cccc(F)c2)no1)(C(=O)NO)S(C)(=O)=O (racemic) [Example 34, 4-[3-(3-fluorophenyl)isoxazol-5-yl]-N-hydroxy-2-methyl-2-(methylsulfonyl)butanamide]	32 µg/mL (≈ 89.8 µM)	2 µg/mL (≈ 5.61 µM)	9.3 nM	> 64 µg/mL	
CC(CCc1cc(-c2ccc3ccccc3n2)no1)(C(=O)NO)S(C)(=O)=O (racemic) [Example 35, N-hydroxy-2-methyl-2-(methylsulfonyl)-4-(3-quinolin-2-ylisoxazol-5-yl)butanamide]	32 µg/mL (≈ 82.2 µM)	8 µg/mL (≈ 20.5 µM)	22.1 nM	> 64 µg/mL	
CC(CCc1cc(-c2ccc(F)c(F)c2F)no1)(C(=O)NO)S(C)(=O)=O (racemic) [Example 36, N-hydroxy-2-methyl-2-(methylsulfonyl)-4-[3-(2,3,4-trifluorophenyl)isoxazol-5-yl]butanamide]	16 µg/mL (≈ 40.8 µM)	1 µg/mL (≈ 2.55 µM)	3.9 nM	> 64 µg/mL	
CC(CCc1cc(-c2ccncc2F)no1)(C(=O)NO)S(C)(=O)=O (racemic) [Example 37, 4-[3-(3-fluoropyridin-4-yl)isoxazol-5-yl]-N-hydroxy-2-methyl-2-(methylsulfonyl)butanamide]	> 64 µg/mL	16 µg/mL (≈ 44.8 µM)	52.4 nM	> 64 µg/mL	
Cc1ccc(-c2cc(CCC(C)(C(=O)NO)S(C)(=O)=O)on2)cc1 (racemic) [Example 38, N-hydroxy-2-methyl-4-[3-(4-methylphenyl)isoxazol-5-yl]-2-(methylsulfonyl)butanamide]	8 µg/mL (≈ 22.7 µM)	1 µg/mL (≈ 2.84 µM)		> 64 µg/mL	2.9 nM
CC(CCc1cc(CCc2ccccc2)no1)(C(=O)NO)S(C)(=O)=O (racemic) [Example 39, N-hydroxy-2-methyl-2-(methylsulfonyl)-4-[3-(2-phenylethyl)isoxazol-5-yl]butanamide]	32 µg/mL (≈ 87.3 µM)	4 µg/mL (≈ 10.9 µM)	9.8 nM	> 64 µg/mL	
CC(CCc1cc(-c2ccc(F)c(F)c2)no1)(C(=O)NO)S(C)(=O)=O (racemic) [Example 41, 4-[3-(3,4-difluorophenyl)isoxazol-5-yl]-N-hydroxy-2-methyl-2-(methylsulfonyl)butanamide]	16 µg/mL (≈ 42.7 µM)	2 µg/mL (≈ 5.34 µM)	6.8 nM	> 64 µg/mL	
